Converted amounts (≈) assume the structure as drawn.

Holding throughout (format): functional
Test [1] concerns Escherichia coli. As to the kind of experiment: Antibacterial activity against Escherichia coli after 24 hr by agar dilution assay.
Test [2] in a line: Antioxidant activity assessed as superoxide radical scavenging activity by NBT reduction assay relative to control. Details: concentration or dose not given beside the values.
In test [3] the test system is Siminovitchia fortis. As to the kind of experiment: Antibacterial activity against Bacillus fortis after 24 hr by agar dilution assay.
The test system of test [4] is Fusarium oxysporum. As to the kind of experiment: Antifungal activity against Fusarium oxysporum after 3 to 5 days by agar dilution assay.
The test system of test [5] is Bacillus subtilis. As to the kind of experiment: Antibacterial activity against Bacillus subtilis after 24 hr by agar dilution assay.
Test [6] deals with Aspergillus flavus. As to the kind of experiment: Antifungal activity against Aspergillus flavus after 3 to 5 days by agar dilution assay.
Test [7] concerns Salmonella enterica subsp. enterica serovar Gallinarum. As to the kind of experiment: Antibacterial activity against Salmonella enterica subsp. enterica serovar Gallinarum after 24 hr by agar dilution assay.
Test [8] concerns Aspergillus niger. As to the kind of experiment: Antifungal activity against Aspergillus niger after 3 to 5 days by agar dilution assay.
For test [9], the system named is Enterobacter cloacae. As to the kind of experiment: Antibacterial activity against Enterobacter cloacae after 24 hr by agar dilution assay.
Test [10] deals with Bacillus thuringiensis. As to the kind of experiment: Antibacterial activity against Bacillus thuringiensis after 24 hr by agar dilution assay.

On to `Cc1cccc2cc(/C=N/NC(=O)C3=C(O)c4ccccc4S(=O)(=O)N3C)c(Cl)nc12`, for which the minimal inhibitory concentration (MIC) in test [1], in test [3], in [4], in test [5], in test [6] and in [7] was more than 1000 µg/mL in each case. The MIC in test [8], in [9] and in test [10] was more than 1000 µg/mL throughout. Further, in test [2], the Activity is 61.3%.

With `CCCOC(=O)c1cc(O)c(O)c(O)c1`, in test [2], the Activity amounted to 91.3%.

Turning to `COc1ccc2nc(Cl)c(/C=N/NC(=O)C3=C(O)c4ccccc4S(=O)(=O)N3C)cc2c1`, the MIC was more than 1000 µg/mL in [1]; more than 200 µg/mL in test [3]; more than 100 µg/mL in test [4]; more than 200 µg/mL in test [5]; more than 100 µg/mL in test [6]; more than 1000 µg/mL in [7]. Also, the MIC in test [8] was more than 100 µg/mL; in test [9] it was more than 1000 µg/mL; in [10], more than 200 µg/mL. In test [2], the Activity was 67.2%.

On to `Cc1ccc2cc(/C=N/NC(=O)C3=C(O)c4ccccc4S(=O)(=O)N3)c(Cl)nc2c1`, for which the minimal inhibitory concentration (MIC) in test [1], in [3], in [4], in test [5], in test [6] and in test [7] was more than 1000 µg/mL each time. Also, the MIC in test [8], in test [9] and in test [10] was more than 1000 µg/mL in each case. Further, in [2], the Activity came out at 49.1%.

`Cc1ccc2nc(Cl)c(/C=N/NC(=O)C3=C(O)c4ccccc4S(=O)(=O)N3C)cc2c1`: the minimum inhibitory concentration (MIC) in test [1], in [3], in test [4], in test [5], in [6] and in test [7] was more than 1000 µg/mL each time. Moreover, the minimal inhibitory concentration (MIC) in [8], in test [9] and in test [10] was more than 1000 µg/mL each time. The Activity in test [2] stood at 51.2%.

With `CC1(C)S[C@@H]2[C@H](NC(=O)[C@H](N)c3ccc(O)cc3)C(=O)N2[C@H]1C(=O)O` [AMOXICILLIN], the MIC amounted to 2 µg/mL (≈ 5.47 µM) in test [1]; 2 µg/mL (≈ 5.47 µM) in test [3]; 2 µg/mL (≈ 5.47 µM) in [4]; 3 µg/mL (≈ 8.21 µM) in test [5]; 2 µg/mL (≈ 5.47 µM) in test [6]; 2 µg/mL (≈ 5.47 µM) in test [7]. For the same compound, the figures for the MIC in test [8], in test [9] and in test [10] were 2 µg/mL (≈ 5.47 µM), 2 µg/mL (≈ 5.47 µM) and 6 µg/mL (≈ 16.4 µM), respectively.

On to `Cc1ccc2nc(Cl)c(/C=N/NC(=O)C3=C(O)c4ccccc4S(=O)(=O)N3)cc2c1`, for which the minimum inhibitory concentration (MIC) in [1] was more than 1000 µg/mL; in test [3], more than 100 µg/mL; in [4], more than 100 µg/mL; in test [5], more than 100 µg/mL; in test [6] it was more than 100 µg/mL; in test [7] it was more than 1000 µg/mL. Besides, the figures for the MIC in [8], in [9] and in test [10] were more than 100 µg/mL, more than 1000 µg/mL and more than 100 µg/mL, respectively. In addition, the Activity in [2] turned out to be 51.8%.

Turning to `Cc1cccc2cc(/C=N/NC(=O)C3=C(O)c4ccccc4S(=O)(=O)N3)c(Cl)nc12`, the MIC in [1], in test [3], in test [4], in test [5], in [6] and in [7] was more than 1000 µg/mL in each case. For the same compound, the MIC in [8], in [9] and in test [10] was more than 1000 µg/mL each time. Further, in test [2], the Activity turned out to be 52.5%.

Take `COc1ccc2nc(Cl)c(/C=N/NC(=O)C3=C(O)c4ccccc4S(=O)(=O)N3)cc2c1`: the minimum inhibitory concentration (MIC) is more than 1000 µg/mL in test [1]; more than 100 µg/mL in [3]; more than 500 µg/mL in test [4]; more than 100 µg/mL in test [5]; more than 500 µg/mL in test [6]; more than 1000 µg/mL in test [7]. Moreover, the MIC in [8] was more than 500 µg/mL; in test [9], more than 1000 µg/mL; in test [10], more than 100 µg/mL. Moreover, the Activity in test [2] amounted to 69.7%.

Consider `COc1ccc2cc(/C=N/NC(=O)C3=C(O)c4ccccc4S(=O)(=O)N3)c(Cl)nc2c1`, for which the MIC in test [1] is more than 1000 µg/mL; in test [3], more than 100 µg/mL; in [4], more than 200 µg/mL; in test [5], more than 1000 µg/mL; in test [6], more than 200 µg/mL; in test [7], more than 1000 µg/mL. For the same compound, the minimum inhibitory concentration (MIC) in [8] is more than 200 µg/mL; in [9], more than 1000 µg/mL; in test [10] it was more than 100 µg/mL. In addition, the Activity in test [2] amounted to 72.1%.

Take `Cc1ccc2cc(/C=N/NC(=O)C3=C(O)c4ccccc4S(=O)(=O)N3C)c(Cl)nc2c1`: the MIC was more than 1000 µg/mL in test [1]; more than 100 µg/mL in test [3]; more than 1000 µg/mL in [4]; more than 100 µg/mL in test [5]; more than 1000 µg/mL in [6]; more than 1000 µg/mL in [7]. Further, the figures for the minimum inhibitory concentration (MIC) in test [8], in test [9] and in test [10] were more than 1000 µg/mL, more than 1000 µg/mL and more than 100 µg/mL, respectively. In [2], the Activity amounted to 51.9%.

Turning to `COc1ccc2cc(/C=N/NC(=O)C3=C(O)c4ccccc4S(=O)(=O)N3C)c(Cl)nc2c1`, the MIC was more than 1000 µg/mL in [1]; more than 100 µg/mL in [3]; more than 1000 µg/mL in [4]; more than 100 µg/mL in test [5]; more than 1000 µg/mL in [6]; more than 1000 µg/mL in test [7]. The results for the MIC in test [8], in test [9] and in [10] were more than 1000 µg/mL, more than 1000 µg/mL and more than 100 µg/mL, respectively. In [2], the Activity came out at 65.1%.

In the case of `CN[C@@H]1[C@H](O[C@H]2[C@H](O[C@H]3[C@H](O)[C@@H](O)[C@H](N=C(N)N)[C@@H](O)[C@@H]3N=C(N)N)O[C@@H](C)[C@]2(O)C=O)O[C@@H](CO)[C@H](O)[C@H]1O` [STREPTOMYCIN], the minimal inhibitory concentration (MIC) amounted to 0.7 µg/mL (≈ 1.2 µM) in test [1]; 0.9 µg/mL (≈ 1.55 µM) in test [3]; 1 µg/mL (≈ 1.72 µM) in test [4]; 1 µg/mL (≈ 1.72 µM) in test [5]; 0.7 µg/mL (≈ 1.2 µM) in [6]; 1 µg/mL (≈ 1.72 µM) in test [7]. Moreover, the minimal inhibitory concentration (MIC) in [8] worked out at 1 µg/mL (≈ 1.72 µM); in [9], 1 µg/mL (≈ 1.72 µM); in [10] it was 3 µg/mL (≈ 5.16 µM).

The values above are taken from ChEMBL document CHEMBL3045019, “Antioxidant and antimicrobial studies of novel N-(substituted-2-chloroquinolin-3-yl)methylidene-4-hydroxy-2H-1,2-benzothiazine-3-carbohydrazides 1,1-dioxides” (2012).
